Target: purified human, His-tagged PRC2 complex (Homo sapiens (Human), UniProt O75530)
Assay: Hot Spot HMT assay, inhibition of PRC2 enzymatic activity
Format: biochemical
Conditions: 10 nM PRC2 complex, 1 μM 3H-SAM, core histone H3, 10-point dose-response
Text: The assay uses purified human, His-tagged PRC2 complex, including N-terminal His-tagged EZH2 enzyme, N-terminal Flag-tagged embryonic ectoderm development protein (EED), N-terminal His-tagged suppressor of zeste 12 (SUZ12), N-terminal His-tagged AEBP2, and N-terminal His-tagged RbAp48. In this assay, the transfer of the tritiated methyl group from radiolabeled S-adenosyl methionine (SAM) to purified core histone protein by EZH2 is quantitated after filtration to determine the activity of the core PRC2 complex in the presence and absence of compound.
The initial starting concentration for the serial dilutions of each compound was 1.0 μM. […] SAH (S-(5-adenosyl)-L-homocysteine) was used as a positive control for assay validation.
An aliquot of each serial dilution of test compound was added to deep 384 well plate using Acoustic Technology instrument (Echo 550, LabCyte) containing reaction buffer (50 mM Tris-HCl (pH 8.)), 0.01% Brij35, 1 mM EDTA, 1 mM DTT, 1 mM PMSF and 1% DMSO), 10 nM purified PRC2 complex and 0.05 mg/ml core histone H3 in a 5 μl volume. The reaction was mixed gently and then pre-incubated for 20 min at 30° C. The enzymatic reaction was initiated by adding 1 μM S-Adenosyl-L-[methyl-^3H]methionine and incubated for 1 hr at 30° C. After 1 hr, the reaction product was detected using a filter binding method and the amount of tritiated H3 core histone was quantitated using a scintillation counter. […] Key: A=<100 nM; B=>100 nM-<500 nM; and C=>500 nM.

Sequence of purified human, His-tagged PRC2 complex (O75530 whole entry): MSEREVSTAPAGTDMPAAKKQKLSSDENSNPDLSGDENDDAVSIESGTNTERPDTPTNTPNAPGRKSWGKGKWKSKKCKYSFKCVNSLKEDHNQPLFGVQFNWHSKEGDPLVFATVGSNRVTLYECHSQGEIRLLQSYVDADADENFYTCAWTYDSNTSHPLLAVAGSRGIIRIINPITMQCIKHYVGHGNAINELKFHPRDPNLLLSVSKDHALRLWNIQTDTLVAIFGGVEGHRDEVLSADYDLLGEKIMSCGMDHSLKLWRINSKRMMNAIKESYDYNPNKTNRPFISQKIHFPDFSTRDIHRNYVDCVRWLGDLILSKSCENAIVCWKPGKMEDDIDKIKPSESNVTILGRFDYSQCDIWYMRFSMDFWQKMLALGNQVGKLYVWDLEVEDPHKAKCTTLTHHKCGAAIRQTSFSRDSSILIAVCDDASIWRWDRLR
Sequence of purified human, His-tagged PRC2 complex (Q15910 whole entry partner): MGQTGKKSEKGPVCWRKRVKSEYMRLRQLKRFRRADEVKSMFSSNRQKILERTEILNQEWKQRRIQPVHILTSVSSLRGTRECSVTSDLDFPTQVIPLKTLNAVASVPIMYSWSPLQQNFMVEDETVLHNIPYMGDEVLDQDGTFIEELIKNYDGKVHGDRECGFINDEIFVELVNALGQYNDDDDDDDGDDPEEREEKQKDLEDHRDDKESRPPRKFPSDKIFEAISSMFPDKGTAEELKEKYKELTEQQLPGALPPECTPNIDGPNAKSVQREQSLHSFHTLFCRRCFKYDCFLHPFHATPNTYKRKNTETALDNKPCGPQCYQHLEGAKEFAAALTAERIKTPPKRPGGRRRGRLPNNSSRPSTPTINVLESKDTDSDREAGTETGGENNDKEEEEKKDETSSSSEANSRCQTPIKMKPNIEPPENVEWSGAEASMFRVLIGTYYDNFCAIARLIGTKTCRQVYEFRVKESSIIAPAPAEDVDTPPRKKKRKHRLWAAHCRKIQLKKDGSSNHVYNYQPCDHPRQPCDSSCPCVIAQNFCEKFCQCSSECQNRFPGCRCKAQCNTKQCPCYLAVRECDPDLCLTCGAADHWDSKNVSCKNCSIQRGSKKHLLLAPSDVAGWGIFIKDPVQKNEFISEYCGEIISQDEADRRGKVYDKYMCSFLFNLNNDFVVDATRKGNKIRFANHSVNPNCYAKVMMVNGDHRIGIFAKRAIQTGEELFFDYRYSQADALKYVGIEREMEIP
Sequence of purified human, His-tagged PRC2 complex (Q15022 whole entry partner): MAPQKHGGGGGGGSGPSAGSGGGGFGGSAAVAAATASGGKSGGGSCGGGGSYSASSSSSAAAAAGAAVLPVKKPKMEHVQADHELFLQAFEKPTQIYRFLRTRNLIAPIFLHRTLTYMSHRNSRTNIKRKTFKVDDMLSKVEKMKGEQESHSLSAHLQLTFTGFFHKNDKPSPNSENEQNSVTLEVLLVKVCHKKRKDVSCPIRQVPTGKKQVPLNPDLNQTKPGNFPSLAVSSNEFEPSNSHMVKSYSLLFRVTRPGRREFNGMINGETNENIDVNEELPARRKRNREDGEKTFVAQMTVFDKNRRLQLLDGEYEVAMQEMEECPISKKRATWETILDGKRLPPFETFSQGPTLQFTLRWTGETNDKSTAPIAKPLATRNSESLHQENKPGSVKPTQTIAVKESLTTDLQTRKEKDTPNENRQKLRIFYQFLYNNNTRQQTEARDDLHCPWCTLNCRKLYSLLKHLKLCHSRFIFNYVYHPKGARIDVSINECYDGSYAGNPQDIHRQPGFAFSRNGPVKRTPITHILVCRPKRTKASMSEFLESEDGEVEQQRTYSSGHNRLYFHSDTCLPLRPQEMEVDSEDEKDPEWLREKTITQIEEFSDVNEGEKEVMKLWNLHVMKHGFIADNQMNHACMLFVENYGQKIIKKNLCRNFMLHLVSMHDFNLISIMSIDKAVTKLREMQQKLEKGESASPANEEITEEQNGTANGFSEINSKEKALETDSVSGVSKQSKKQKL
Sequence of purified human, His-tagged PRC2 complex (Q6ZN18 whole entry partner): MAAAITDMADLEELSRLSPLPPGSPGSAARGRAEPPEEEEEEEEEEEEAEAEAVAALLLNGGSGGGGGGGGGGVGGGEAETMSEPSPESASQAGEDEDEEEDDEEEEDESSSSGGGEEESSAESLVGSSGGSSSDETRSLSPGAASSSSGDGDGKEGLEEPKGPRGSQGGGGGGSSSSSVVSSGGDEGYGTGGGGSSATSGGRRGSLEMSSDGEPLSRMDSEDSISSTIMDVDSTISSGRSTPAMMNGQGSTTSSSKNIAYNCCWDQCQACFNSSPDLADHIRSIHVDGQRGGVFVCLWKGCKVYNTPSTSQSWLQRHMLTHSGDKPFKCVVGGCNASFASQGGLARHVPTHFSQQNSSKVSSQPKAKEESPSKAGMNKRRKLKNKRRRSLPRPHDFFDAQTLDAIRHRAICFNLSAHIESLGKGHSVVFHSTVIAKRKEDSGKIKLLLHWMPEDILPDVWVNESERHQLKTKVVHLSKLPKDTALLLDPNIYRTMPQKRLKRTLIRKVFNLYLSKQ
Sequence of purified human, His-tagged PRC2 complex (Q09028 whole entry partner): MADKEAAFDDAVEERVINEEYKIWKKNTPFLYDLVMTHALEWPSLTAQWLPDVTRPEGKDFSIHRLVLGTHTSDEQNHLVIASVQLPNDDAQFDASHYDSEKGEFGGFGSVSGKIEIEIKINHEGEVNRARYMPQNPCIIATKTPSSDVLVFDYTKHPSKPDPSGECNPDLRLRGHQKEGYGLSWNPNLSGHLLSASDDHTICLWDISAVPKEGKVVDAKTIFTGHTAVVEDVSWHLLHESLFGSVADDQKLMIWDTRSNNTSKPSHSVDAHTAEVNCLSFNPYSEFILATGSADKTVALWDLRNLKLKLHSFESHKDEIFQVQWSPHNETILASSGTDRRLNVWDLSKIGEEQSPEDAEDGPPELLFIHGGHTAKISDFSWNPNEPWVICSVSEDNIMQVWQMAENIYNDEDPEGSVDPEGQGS

SMILES | IC50
Cc1c(-c2cnc(NCc3c(F)ccc4c3CCO4)n3cc(C#N)nc23)cnc(CN(C)C)c1F [Example 233, 8-(6-((dimethylamino)methyl)-5-fluoro-4-methylpyridin-3-yl)-5-(((5-fluoro-2,3-dihydrobenzofuran-4-yl)methyl)amino)imidazo[1,2-c]pyrimidine-2-carbonitrile] | < 100 nM
Cc1nn(C)cc1-c1cnc(NCc2c(F)ccc3c2CCO3)n2cc(C#N)nc12 [Example 72, 8-(1,3-dimethyl-1H-pyrazol-4-yl)-5-(((5-fluoro-2,3-dihydrobenzofuran-4-yl)methyl)amino)imidazo[1,2-c]pyrimidine-2-carbonitrile] | < 100 nM
Cc1ccc(-c2cnc(NCc3c(F)ccc4c3CCO4)n3cc(C#N)nc23)c(C)c1 [Example 192, 8-(2,4-dimethylphenyl)-5-(((5-fluoro-2,3-dihydrobenzofuran-4-yl)methyl)amino)imidazo[1,2-c]pyrimidine-2-carbonitrile] | > 500 nM
Cc1cc(CN(C)C)c(F)cc1-c1cnc(NCc2c(F)ccc3c2CCO3)n2cc(C#N)nc12 [Example 84, 8-(4-((dimethylamino)methyl)-5-fluoro-2-methylphenyl)-5-(((5-fluoro-2,3-dihydrobenzofuran-4-yl)methyl)amino)imidazo[1,2-c]pyrimidine-2-carbonitrile] | 100 to 500 nM
CN(C)Cc1cc(-c2cnc(NCc3c(F)ccc4c3CCO4)n3cc(C#N)nc23)n(C)n1 [Example 210, 8-(3-((dimethylamino)methyl)-1-methyl-1H-pyrazol-5-yl)-5-(((5-fluoro-2,3-dihydrobenzofuran-4-yl)methyl)amino)imidazo[1,2-c]pyrimidine-2-carbonitrile] | < 100 nM
Cc1ccc(-c2cnc(NCc3c(F)ccc4c3CCO4)n3cc(C#N)nc23)cc1 [Example 175, 5-(((5-fluoro-2,3-dihydrobenzofuran-4-yl)methyl)amino)-8-(p-tolyl)imidazo[1,2-c]pyrimidine-2-carbonitrile] | 100 to 500 nM
CS(=O)(=O)c1ccc(-c2cnc(NCc3c(F)ccc4c3CCO4)n3cc(C#N)nc23)cc1 [Example 73, 5-(((5-fluoro-2,3-dihydrobenzofuran-4-yl)methyl)amino)-8-(4-(methylsulfonyl)phenyl)imidazo[1,2-c]pyrimidine-2-carbonitrile] | < 100 nM
N#Cc1cn2c(NCc3c(F)ccc4c3CCO4)ncc(-c3ccnn3CCO)c2n1 [Example 231, 5-(((5-fluoro-2,3-dihydrobenzofuran-4-yl)methyl)amino)-8-(1-(2-hydroxyethyl)-1H-pyrazol-5-yl)imidazo[1,2-c]pyrimidine-2-carbonitrile] | 100 to 500 nM
COC(=O)c1ccc(-c2cnc(NCc3c(F)ccc4c3CCO4)n3cc(C#N)nc23)cc1 [Example 167, methyl 4-(2-cyano-5-(((5-fluoro-2,3-dihydrobenzofuran-4-yl)methyl)amino)imidazo[1,2-c]pyrimidin-8-yl)benzoate] | 100 to 500 nM
Cc1ncccc1-c1cnc(NCc2c(F)ccc3occc23)n2cc(C#N)nc12 [Example 22, 5-(((5-fluorobenzofuran-4-yl)methyl)amino)-8-(2-methylpyridin-3-yl)imidazo[1,2-c]pyrimidine-2-carbonitrile] | 100 to 500 nM
CN(C)C(=O)c1ccc(-c2cnc(NCc3c(F)ccc4c3CCO4)n3cc(C#N)nc23)cc1 [Example 180, 4-(2-cyano-5-(((5-fluoro-2,3-dihydrobenzofuran-4-yl)methyl)amino)imidazo[1,2-c]pyrimidin-8-yl)-N,N-dimethylbenzamide] | < 100 nM
Cc1c(-c2cnc(NCc3c(F)ccc4c3CCO4)n3cc(C#N)nc23)ccc(CN(C)C)c1F [Example 85, 8-(4-((dimethylamino)methyl)-3-fluoro-2-methylphenyl)-5-(((5-fluoro-2,3-dihydrobenzofuran-4-yl)methyl)amino)imidazo[1,2-c]pyrimidine-2-carbonitrile] | < 100 nM
Cc1ncc(-c2cnc(NCc3c(F)ccc4c3CCO4)n3cc(C#N)nc23)cc1N [Example 129, 8-(5-amino-6-methylpyridin-3-yl)-5-(((5-fluoro-2,3-dihydrobenzofuran-4-yl)methyl)amino)imidazo[1,2-c]pyrimidine-2-carbonitrile] | < 100 nM
N#Cc1cn2c(NCc3c(F)ccc4c3CCO4)ncc(-c3ccn(CC4CCCO4)n3)c2n1 (stereo not shown) [Example 153, 5-(((5-fluoro-2,3-dihydrobenzofuran-4-yl)methyl)amino)-8-(1-((tetrahydrofuran-2-yl)methyl)-1H-pyrazol-3-yl)imidazo[1,2-c]pyrimidine-2-carbonitrile] | 100 to 500 nM
COCCn1cc(-c2cnc(NCc3c(F)ccc4c3CCO4)n3cc(C#N)nc23)cn1 [Example 117, 5-(((5-fluoro-2,3-dihydrobenzofuran-4-yl)methyl)amino)-8-(1-(2-methoxyethyl)-1H-pyrazol-4-yl)imidazo[1,2-c]pyrimidine-2-carbonitrile] | 100 to 500 nM
Cc1cc(C2CCCN2)ccc1-c1cnc(NCc2c(F)ccc3c2CCO3)n2cc(C#N)nc12 (single isomer, unassigned) [Example 213, 5-(((5-fluoro-2,3-dihydrobenzofuran-4-yl)methyl)amino)-8-(2-methyl-4-(pyrrolidin-2-yl)phenyl)imidazo[1,2-c]pyrimidine-2-carbonitrile] | < 100 nM
CN1CCC1c1ccc(-c2cnc(NCc3c(F)ccc4c3CCO4)n3cc(C#N)nc23)cc1 (stereo not shown) [Example 221, 5-(((5-fluoro-2,3-dihydrobenzofuran-4-yl)methyl)amino)-8-(4-(1-methylazetidin-2-yl)phenyl)imidazo[1,2-c]pyrimidine-2-carbonitrile] | < 100 nM
CN(C)CCOc1ccc(-c2cnc(NCc3c(F)ccc4c3CCO4)n3cc(C#N)nc23)cc1 [Example 189, 8-(4-(2-(dimethylamino)ethoxy)phenyl)-5-(((5-fluoro-2,3-dihydrobenzofuran-4-yl)methyl)amino)imidazo[1,2-c]pyrimidine-2-carbonitrile] | 100 to 500 nM
Cn1cccc(-c2cnc(NCc3c(F)ccc4c3CCO4)n3cc(C#N)nc23)c1=O [Example 156, 5-(((5-fluoro-2,3-dihydrobenzofuran-4-yl)methyl)amino)-8-(1-methyl-2-oxo-1,2-dihydropyridin-3-yl)imidazo[1,2-c]pyrimidine-2-carbonitrile] | 100 to 500 nM
Cn1nc(C#N)cc1-c1cnc(NCc2c(F)ccc3c2CCO3)n2cc(C#N)nc12 [Example 212, 8-(3-cyano-1-methyl-1H-pyrazol-5-yl)-5-(((5-fluoro-2,3-dihydrobenzofuran-4-yl)methyl)amino)imidazo[1,2-c]pyrimidine-2-carbonitrile] | < 100 nM
CN(C)Cc1ncc(-c2cnc(NCc3c(F)ccc4c3CCO4)n3cc(C#N)nc23)cc1F [Example 40, 8-(6-((dimethylamino)methyl)-5-fluoropyridin-3-yl)-5-(((5-fluoro-2,3-dihydrobenzofuran-4-yl)methyl)amino)imidazo[1,2-c]pyrimidine-2-carbonitrile] | < 100 nM
Cc1cc(-c2cnc(NCc3c(F)ccc4c3CCO4)n3cc(C(=O)N(C)C)nc23)n(C)n1 [Example 21, 8-(1,3-dimethyl-1H-pyrazol-5-yl)-5-(((5-fluoro-2,3-dihydrobenzofuran-4-yl)methyl)amino)-N,N-dimethylimidazo[1,2-c]pyrimidine-2-carboxamide] | > 500 nM
Cc1nn(C(C)C)c(C)c1-c1cnc(NCc2c(F)ccc3c2CCO3)n2cc(C#N)nc12 [Example 92, 5-(((5-fluoro-2,3-dihydrobenzofuran-4-yl)methyl)amino)-8-(1-isopropyl-3,5-dimethyl-1H-pyrazol-4-yl)imidazo[1,2-c]pyrimidine-2-carbonitrile] | 100 to 500 nM
Cc1nn(C[C@H](C)O)c(C)c1-c1cnc(NCc2c(F)ccc3c2CCO3)n2cc(C#N)nc12 [Example 65, (S)-5-(((5-fluoro-2,3-dihydrobenzofuran-4-yl)methyl)amino)-8-(1-(2-hydroxypropyl)-3,5-dimethyl-1H-pyrazol-4-yl)imidazo[1,2-c]pyrimidine-2-carbonitrile] | 100 to 500 nM
N#Cc1cn2c(NCc3c(F)ccc4c3CCO4)ncc(-c3ccccc3)c2n1 [Example 46, 5-(((5-fluoro-2,3-dihydrobenzofuran-4-yl)methyl)amino)-8-phenylimidazo[1,2-c]pyrimidine-2-carbonitrile] | < 100 nM
N#Cc1cn2c(NCc3c(F)ccc4c3CCO4)ncc(-c3ccc4c(c3)CCNC4)c2n1 [Example 203, 5-(((5-fluoro-2,3-dihydrobenzofuran-4-yl)methyl)amino)-8-(1,2,3,4-tetrahydroisoquinolin-6-yl)imidazo[1,2-c]pyrimidine-2-carbonitrile] | 100 to 500 nM
N#Cc1cn2c(NCc3c(F)ccc4c3CCO4)ncc(-c3cnn(Cc4cccnc4)c3)c2n1 [Example 101, 5-(((5-fluoro-2,3-dihydrobenzofuran-4-yl)methyl)amino)-8-(1-(pyridin-3-ylmethyl)-1H-pyrazol-4-yl)imidazo[1,2-c]pyrimidine-2-carbonitrile] | 100 to 500 nM
Cc1ccncc1-c1cnc(NCc2c(F)ccc3c2CCO3)n2cc(C#N)nc12 [Example 98, 5-(((5-fluoro-2,3-dihydrobenzofuran-4-yl)methyl)amino)-8-(4-methylpyridin-3-yl)imidazo[1,2-c]pyrimidine-2-carbonitrile] | < 100 nM

Source: patent US20240398811A1, “PRC2 INHIBITORS FOR USE IN TREATING BLOOD DISORDERS” (ORIC Pharmaceuticals, Inc., priority 2021, published 2024)
